Legend:
KRAS G12C protein = KRAS G12C protein (Homo sapiens, UniProt P01116, G12C); test: Nucleotide exchange assay, Method III (TR-FRET, association of KRAS G12C with Raf-RBD, SOS1-mediated exchange); format: biochemical; details: overnight (18 hr) incubation with GDP-bound KRAS G12C
Description: Method III. Inhibition of SOS1-mediated exchange of GDP for GTP on the KRAS G12C protein was measured in a biochemical assay that monitors association of KRAS G12C protein with the Ras-binding domain of Raf (Raf-RBD), where the association is coupled to exchange of GDP to GTP on the KRAS G12C protein. The assay was performed at WuXi AppTec (Shanghai, China). Compounds were serially diluted in 3-fold dilutions to 11 concentrations and spotted into the wells of an assay plate in a total volume of 150 nL DMSO per well. A 2× enzyme mix was prepared by diluting GDP-bound, His-tagged KRAS G12C to 25 nM in assay buffer. 10 μL/well of 2× enzyme mix was added to all wells, and the plate was sealed and incubated overnight (18 hr) at 23° C. 4×SOS1/GDP and 4×SOS1/GTP were prepared in assay buffer. 5 μL/well of 4×SOS1/GDP mix was added to negative control wells, 5 μL/well of 4×SOS1/GTP mix was added to the remaining wells, and the plate was further incubated at 23° C. for 1 hr. Finally, FLAG-tagged Raf-RBD is added to the reaction mixture along with a pair of FRET donor- and acceptor-conjugated antibodies specific for the FLAG-tagged Raf-RBD and His-tagged KRAS G12C proteins. A 4× Raf-RBD/Tb-anti-FLAG/D2-anti-His mix was prepared in assay buffer, and 5 μL/well of the mix was added to all wells, followed by incubation at room temperature for 2 hr. The TR-FRET signals, which increase with association of KRAS G12C and Raf-RBD, were measured on a Perkin Elmer Envision 2104 plate reader, and data were analyzed by non-linear regression to obtain IC50 values for inhibition by compounds. Table 2 includes results of the assay of Method III. ‘+++’ indicates IC50 values ≤300 nM, ‘++’ indicates IC50 values between 300 nM-3 μM, and ‘+’ indicates IC50 values ≥3 μM.

MIA PaCa-2 = test: Cell proliferation assay panel (Cell Titer-Glo), MIA PaCa-2; format: cell-based; details: Homo sapiens, MIA PaCa-2, 72 h
Description: Potency of compounds was determined in cell proliferation assays in a panel of cancer cell lines. Cells were seeded in 384-well plates (Corning, Cat. #3765) at specified densities in 40 μL of culture medium and incubated overnight at 37° C. in a 5% CO2 incubator (culture conditions). With a robotic dispenser, serially diluted test compounds were added in a volume of 20 nL DMSO to wells in the culture plate to achieve the final desired concentrations of test compounds, and the cells were further incubated in culture conditions for 72 hr. The assay was terminated by addition of 25 μL of Cell Titer-Glo reagent (Promega, Madison, Wis.) to each well. Contents were mixed, the plate was incubated for 10 min at room temperature and luminescence was measured. The IC50 value of each test compound was calculated with XLFit curve fitting software. Results are shown in Table 4. ‘+++’ indicates IC50 values ≤300 nM, ‘++’ indicates IC50 values between 300 nM-3 μM, and ‘+’ indicates IC50 values ≥3 μM.

NCI-H358 cells = test: 3D cell proliferation assay (Cell Titer-Glo 3D); format: cell-based; details: Homo sapiens, NCI-H358, 168 h, NCI-H358, 3D (ultra-low attachment); 7 days
Description: NCI-H358 cells (ATCC® CRL-5807™) were plated in a 384-well Black/Clear Round Bottom Ultra-Low Attachment Microplate (Corning) in medium (RPMI-1640+10% FBS) at a density of 1000 cells in 50 μL per well, then incubated overnight at 37° C. and 5% CO2. Cells were treated with test compounds at 9 concentrations within a specified concentration range (e.g., 0.5 nM-10 μM) for generation of dose response curves. Test compounds were prepared by 1:3 serial dilution in DMSO from a specified starting concentration (e.g., 20 μM, 2 μM or 0.2 μM) and then added to wells of the assay plate in a total volume of 150 nL DMSO. The cells were further incubated at 37° C. and 5% CO2 for 7 days. Cell viability was assessed by adding 40 μL of Cell Titer-Glo® 3D reagent (Cat. No.: G9683, Promega) to each well and reading luminescence after mixing and incubation of the samples. The IC50 value of each test compound was calculated with XLFit curve fitting software.

Chain of KRAS G12C protein (P01116 1-188 isoform P01116-2 G12C): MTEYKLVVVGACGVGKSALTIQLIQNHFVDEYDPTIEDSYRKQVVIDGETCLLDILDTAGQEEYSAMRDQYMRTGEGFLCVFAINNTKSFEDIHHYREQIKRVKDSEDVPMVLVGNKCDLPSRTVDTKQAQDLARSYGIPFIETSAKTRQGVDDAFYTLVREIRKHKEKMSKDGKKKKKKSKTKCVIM

**Q.** `C=CC(=O)N1CCN(c2c(C(=O)NC)c(=O)n(-c3c(C)ccnc3C(C)C)c3nc(-c4cccc5sc(N)nc45)c(F)cc23)CC1` (single isomer, unassigned) [254 (Isomer A), 4-(4-acryloylpiperazin-1-yl)-7-(2-aminobenzo[d]thiazol-4-yl)-6-fluoro-1-(2-isopropyl-4-methylpyridin-3-yl)-N-methyl-2-oxo-1,2-dihydro-1,8-naphthyridine-3-carboxamide] was tested. Which IC50 (KRAS G12C protein) did it give?
**A.** 300 to 3000 nM

**Q.** What about the IC50 (MIA PaCa-2) of the same molecule?
**A.** ≥ 3000 nM

**Q.** What does the source list for `C=CC(=O)N1CCN(c2c(C(=O)NC)c(=O)n(-c3c(C)ccnc3C(C)C)c3nc(-c4c(C)ccc5[nH]ncc45)c(F)cc23)CC1` (single isomer, unassigned) [116 (Isomer A), 4-(4-acryloylpiperazin-1-yl)-6-fluoro-1-(2-isopropyl-4-methylpyridin-3-yl)-N-methyl-7-(5-methyl-1H-indazol-4-yl)-2-oxo-1,2-dihydro-1,8-naphthyridine-3-carboxamide]?
**A.** IC50 (KRAS G12C protein): ≤ 300 nM; IC50 (MIA PaCa-2): ≥ 3000 nM

**Q.** For `C=CC(=O)N1CCN(c2c(S(C)(=O)=O)c(=O)n(-c3c(C)ccnc3C(C)C)c3nc(-c4cccc5sc(N)nc45)c(F)cc23)C[C@H]1C` (single isomer, unassigned) [249 (Isomer A)], which IC50 (KRAS G12C protein) is on record?
**A.** ≤ 300 nM

**Q.** And the IC50 (MIA PaCa-2)?
**A.** 300 to 3000 nM

**Q.** Which IC50 (KRAS G12C protein) does the source give for `C=CC(=O)N1CCN(c2c(S(C)(=O)=O)c(=O)n(-c3c(C)ccnc3C(C)C)c3c(F)c(-c4c(C)ccc5[nH]ncc45)c(Cl)cc23)CC1` (single isomer, unassigned) [187 (Isomer C), 4-(4-acryloylpiperazin-1-yl)-6-chloro-8-fluoro-1-(2-isopropyl-4-methylpyridin-3-yl)-7-(5-methyl-1H-indazol-4-yl)-3-(methylsulfonyl)quinolin-2(1H)-one] here?
**A.** ≤ 300 nM

**Q.** And the IC50 (NCI-H358 cells)?
**A.** ≤ 100 nM

**Q.** What about the IC50 (MIA PaCa-2) of the same molecule?
**A.** 300 to 3000 nM

**Q.** For `C=CC(=O)N1CCN(c2c(S(C)(=O)=O)c(=O)n(-c3c(C)ccnc3C(C)C)c3c(F)c(-c4cccc5sc(N)nc45)c(Cl)cc23)CC1` (single isomer, unassigned) [252 (Isomer D), 4-(4-acryloylpiperazin-1-yl)-7-(2-aminobenzo[d]thiazol-4-yl)-6-chloro-8-fluoro-1-(2-isopropyl-4-methylpyridin-3-yl)-3-(methylsulfonyl)quinolin-2(1H)-one], which IC50 (KRAS G12C protein) is on record?
**A.** ≤ 300 nM

**Q.** What about the IC50 (NCI-H358 cells) of the same molecule?
**A.** ≤ 100 nM

**Q.** For `C=CC(=O)N1CCN(c2c(C(=O)NC)c(=O)n(-c3c(C)ccnc3C(C)C)c3nc(-c4c(O)cccc4F)c(F)cc23)[C@@H](C)C1` (single isomer, unassigned) [76 (Isomer A)], which IC50 (KRAS G12C protein) is on record?
**A.** 300 to 3000 nM

**Q.** What about the IC50 (NCI-H358 cells) of the same molecule?
**A.** 100 to 2000 nM

**Q.** What does the source list for `C=CC(=O)N1CCN(c2c(S(C)(=O)=O)c(=O)n(-c3c(C)ccnc3C(C)C)c3nc(-c4c(O)cccc4F)c(F)cc23)[C@@H](C)C1` (single isomer, unassigned) [131 (Isomer A)]?
**A.** IC50 (KRAS G12C protein): 300 to 3000 nM; IC50 (NCI-H358 cells): 100 to 2000 nM

**Q.** For `C=CC(=O)N1CCN(c2c(C(=O)NC)c(=O)n(-c3c(C)ccnc3C(C)C)c3nc(-c4c(O)cccc4F)c(F)cc23)C[C@@H]1CC#N` (single isomer, unassigned) [80 (Isomer A)], which IC50 (KRAS G12C protein) is on record?
**A.** ≤ 300 nM

**Q.** What about the IC50 (NCI-H358 cells) of the same molecule?
**A.** 100 to 2000 nM

**Q.** What does the source list for `C=CC(=O)N1CCN(c2c(S(C)(=O)=O)c(=O)n(-c3c(C)ccnc3C(C)C)c3nc(-c4c(O)cccc4F)c(F)cc23)C[C@@H]1CC#N` (single isomer, unassigned) [135 (Isomer B)]?
**A.** IC50 (KRAS G12C protein): 300 to 3000 nM; IC50 (NCI-H358 cells): 100 to 2000 nM
